The values below come from paper PMC3138742 (PLoS ONE, 2011).

The subject of one experiment is SK-OV-3 xenograft. The experiment is described as follows: Human tumor xenograft model, tumor growth. The following applies: nude mice, p.o. twice daily. It is filed as in vivo. The protocol:
(§1) The mice were housed and maintained under specific-pathogen free (SPF) conditions. All animal procedures were performed according to the protocol approved by the Institutional Animal Care and Use Committee at Shanghai Institute of Materia Medica, Chinese Academy of Sciences (SIMM-AE-DJ-2010-01). Under sterile conditions, well-developed tumors were cut into 1-mm^3 fragments and transplanted s.c. into the right flank of nude mice using a trocar. When the tumor reached a volume reached 100 to 200 mm^3, the mice were randomly assigned into control and treatment groups. […] The sizes of the tumors were measured twice per week using microcalipers. The tumor volume (V) was calculated as follows: V = (length×width^2)/2. The body weights of the mice were observed simultaneously.

For a further experiment, the system named is Calu-3 xenograft. The experiment is described as follows: Human tumor xenograft model, tumor growth. The experiment is classed as in vivo. The following applies: nude mice, p.o. twice daily. The protocol: as §1
Experiment [1] deals with EGFR phosphorylation in NIH3T3-EGFR T790M/L858R cells. The experiment is described as follows: Western blot of EGFR phosphorylation. It is filed as cell-based. The following applies: 6 h, immunoblotting. The protocol: Cell viability was determined using sulforhodamine B assay. IC50 values were determined based on the results of three independent experiments. […] Whole-cell lysates were assayed for total EGFR and phosphorylation of EGFR by immunoblotting. […] Cell viability was determined using sulforhodamine B assay.

The next experiment concerns the target ErbB2 (Homo sapiens, UniProt P04626). The experiment is described as follows: Rapid dilution irreversibility experiment. The experiment is classed as biochemical. On the set-up: The kinase domain of EGFR, ErbB-2, IGF1R, VEGFR2, FGFR1, PDGFRα, c-Src, c-Met, RON, c-Kit, EphA2 and EphB2 were expressed; made in house. The following applies: preincubated 30 min at 100-fold IC50, diluted 100-fold, sampled 180 minutes. As to the method:
The microplate was placed in the EZ Reader (Caliper Life Sciences, MA) and wells were repeatedly sampled for 180 minutes.
To verify this, we determined the reversibility of EGFR and ErbB2 binding using a dilution method. […] After incubating, the enzyme/inhibitor mixture is diluted 100-fold (i.e., to normal reaction conditions), reaction buffer plus ATP and substrate are added, and receptor kinase activity is measured continuously. In general, a reversible inhibitor dissociates quickly, allowing immediate recovery of enzymatic activity, whereas a slowly reversible inhibitor allows a gradual increase in activity. In contrast, an irreversible inhibitor prevents recovery of enzymatic activity.

Sequence of ErbB2 (P04626 720-987 limits assumed): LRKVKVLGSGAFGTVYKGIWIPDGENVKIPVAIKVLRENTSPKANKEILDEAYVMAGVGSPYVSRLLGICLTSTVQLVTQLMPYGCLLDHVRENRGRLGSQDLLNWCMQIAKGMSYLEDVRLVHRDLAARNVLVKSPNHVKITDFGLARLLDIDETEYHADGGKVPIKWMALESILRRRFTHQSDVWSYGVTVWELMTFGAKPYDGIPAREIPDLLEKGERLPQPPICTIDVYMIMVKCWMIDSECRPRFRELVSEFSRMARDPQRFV

In the case of `CS(=O)(=O)CCNCc1ccc(-c2ccc3ncnc(Nc4ccc(OCc5cccc(F)c5)c(Cl)c4)c3c2)o1` [lapatinib, reference compound], the tumor growth entry in the experiment with SK-OV-3 xenograft and in the experiment with Calu-3 xenograft was “exhibited antitumor activity” throughout. Also, the “inhibition of EGFR phosphorylation” value in experiment [1] is listed as “much weaker inhibitory effect”. Moreover, the “recovery of ErbB2 enzymatic activity after dilution” value at ErbB2 is “slow recovery of the enzymatic activity”.
